Test results reported in US10238670B2, “9-aminomethyl minocycline compounds and methods of use thereof in urinary tract infection (UTI) treatment” (Paratek Pharmaceuticals, Inc., priority 2016, dated 2019).
Values after ≈ are worked out from the molar mass of the structure shown.

Assays:
E. coli ESBL− = assay: In vitro MIC, 2010 surveillance isolates; assay type: cell-based, Escherichia coli; settings: for % R (resistance): CLSI breakpoints
Acinetobacter spp = assay: In vitro MIC, 2010 surveillance isolates; assay type: cell-based; settings: for range of MICs (N <10, shown instead of MIC90): N=9; for % R (resistance): CLSI breakpoints
MS CoNS = assay: In vitro MIC, 2010 surveillance isolates; assay type: cell-based, Coagulase-Negative Staphylococcus
E. faecium VNS = assay: In vitro MIC, 2010 surveillance isolates; assay type: cell-based; settings: for % R (resistance): CLSI breakpoints
E. cloacae CeftazR = assay: In vitro MIC, 2010 surveillance isolates; assay type: cell-based; settings: for % R (resistance): CLSI breakpoints
human plasma protein = settings: literature; cited from earlier work
K. oxytoca = assay: In vitro MIC, 2010 surveillance isolates; assay type: cell-based; settings: for % R (resistance): CLSI breakpoints
K. pneumoniae ESBL+ = assay: In vitro MIC, 2010 surveillance isolates; assay type: cell-based, Klebsiella pneumoniae; settings: for % R (resistance): CLSI breakpoints
E. faecalis VS = assay: In vitro MIC, 2010 surveillance isolates; assay type: cell-based; settings: for % R (resistance): CLSI breakpoints
MSSA = assay: In vitro MIC, 2010 surveillance isolates; assay type: cell-based

C[C@H]1c2cccc(O)c2C(=O)C2=C(O)[C@]3(O)C(=O)C(C(N)=O)=C(O)[C@@H](N(C)C)[C@@H]3[C@@H](O)[C@@H]21 [Doxycycline]
MIC90 (E. coli ESBL−; Asia/Pac, N=282): > 8 µg/mL | MIC90 (E. coli ESBL−; Europe, N=1533): > 8 µg/mL | % R (resistance) (E. coli ESBL−; L. Amer): 31.4% | MIC90 (E. coli ESBL−; L. Amer, N=389): > 8 µg/mL | % R (resistance) (E. coli ESBL−; N America): 16% | MIC90 (E. coli ESBL−; N America, N=1172): > 8 µg/mL | range of MICs (N <10, shown instead of MIC90) (Acinetobacter spp; Asia/Pac): ≤0.06-2 | MIC90 (Acinetobacter spp; Europe, N=43): > 8 µg/mL | % R (resistance) (Acinetobacter spp; L. Amer): 0% | range of MICs (N <10, shown instead of MIC90) (Acinetobacter spp; L. Amer): ≤0.06-2 | % R (resistance) (Acinetobacter spp; N America): 11.9% | MIC90 (Acinetobacter spp; N America, N=42): > 8 µg/mL | % R (resistance) (MS CoNS; Asia/Pac, Eucast breakpoints): 5.6% | MIC90 (MS CoNS; Asia/Pac, N=18): 2 µg/mL (≈ 4.5 µM) | % R (resistance) (MS CoNS; Europe, Eucast breakpoints): 3.2% | MIC90 (MS CoNS; Europe, N=185): 1 µg/mL (≈ 2.25 µM) | % R (resistance) (MS CoNS; L. Amer, CLSI breakpoints): 0% | MIC90 (MS CoNS; L. Amer, N=67): 2 µg/mL (≈ 4.5 µM) | % R (resistance) (MS CoNS; N America, CLSI breakpoints): 0.5% | MIC90 (MS CoNS; N America, N=191): 1 µg/mL (≈ 2.25 µM) | MIC90 (E. faecium VNS; Asia/Pac, N=24): > 8 µg/mL | MIC90 (E. faecium VNS; Europe, N=71): 8 µg/mL (≈ 18 µM) | % R (resistance) (E. faecium VNS; L. Amer): 7.3% | MIC90 (E. faecium VNS; L. Amer, N=41): 8 µg/mL (≈ 18 µM) | % R (resistance) (E. faecium VNS; N America): 33.1% | MIC90 (E. faecium VNS; N America, N=478): > 8 µg/mL | MIC90 (E. cloacae CeftazR; Asia/Pac, N=63): 8 µg/mL (≈ 18 µM) | MIC90 (E. cloacae CeftazR; Europe, N=72): > 8 µg/mL | % R (resistance) (E. cloacae CeftazR; L. Amer): 14.3% | MIC90 (E. cloacae CeftazR; L. Amer, N=42): > 8 µg/mL | % R (resistance) (E. cloacae CeftazR; N America): 28.6% | MIC90 (E. cloacae CeftazR; N America, N=77): > 8 µg/mL | human plasma protein binding, Mean (human plasma protein): 82-93% | MIC90 (K. oxytoca; Asia/Pac, N=17): 2 µg/mL (≈ 4.5 µM) | MIC90 (K. oxytoca; Europe, N=158): 2 µg/mL (≈ 4.5 µM) | % R (resistance) (K. oxytoca; L. Amer): 12% | MIC90 (K. oxytoca; L. Amer, N=25): > 8 µg/mL | % R (resistance) (K. oxytoca; N America): 2.3% | MIC90 (K. oxytoca; N America, N=177): 4 µg/mL (≈ 9 µM) | MIC90 (K. pneumoniae ESBL+; Asia/Pac, N=124): > 8 µg/mL | MIC90 (K. pneumoniae ESBL+; Europe, N=151): > 8 µg/mL | % R (resistance) (K. pneumoniae ESBL+; L. Amer): 44% | MIC90 (K. pneumoniae ESBL+; L. Amer, N=209): > 8 µg/mL | % R (resistance) (K. pneumoniae ESBL+; N America): 43.5% | MIC90 (K. pneumoniae ESBL+; N America, N=108): > 8 µg/mL | MIC90 (E. faecalis VS; Asia/Pac, N=214): > 8 µg/mL | MIC90 (E. faecalis VS; Europe, N=669): > 8 µg/mL | % R (resistance) (E. faecalis VS; L. Amer): 7.6% | MIC90 (E. faecalis VS; L. Amer, N=290): 8 µg/mL (≈ 18 µM) | % R (resistance) (E. faecalis VS; N America): 7.1% | MIC90 (E. faecalis VS; N America, N=863): 8 µg/mL (≈ 18 µM) | % R (resistance) (MSSA; Asia/Pac, Eucast breakpoints): 1.7% | MIC90 (MSSA; Asia/Pac, N=641): 1 µg/mL (≈ 2.25 µM) | % R (resistance) (MSSA; Europe, Eucast breakpoints): 1.4% | MIC90 (MSSA; Europe, N=2109): 0.12 µg/mL (≈ 0.27 µM) | % R (resistance) (MSSA; L. Amer, CLSI breakpoints): 0% | MIC90 (MSSA; L. Amer, N=590): 0.5 µg/mL (≈ 1.13 µM) | % R (resistance) (MSSA; N America, CLSI breakpoints): ≤ 0.1%
